Measurements published in patent publication US11634450B2, “DOT1L degraders and uses thereof” (DANA-FARBER CANCER INSTITUTE, INC., priority 2018, dated 2023).
Values belong to the compound of their own block, whether it stands above or below them.

What was measured:
DOT1L [1] = molecular target: T1, DOT1L (Homo sapiens, UniProt Q8TEK3); experiment: Degradation in Molm13 PA cell line by immunoblot; type: cell-based; design: endogenous in cells; details: FIGS. 9A-9B, 0.3 μM to 10 μM, 24, 48 and 72 hours
T1 sequence (Q8TEK3 whole entry): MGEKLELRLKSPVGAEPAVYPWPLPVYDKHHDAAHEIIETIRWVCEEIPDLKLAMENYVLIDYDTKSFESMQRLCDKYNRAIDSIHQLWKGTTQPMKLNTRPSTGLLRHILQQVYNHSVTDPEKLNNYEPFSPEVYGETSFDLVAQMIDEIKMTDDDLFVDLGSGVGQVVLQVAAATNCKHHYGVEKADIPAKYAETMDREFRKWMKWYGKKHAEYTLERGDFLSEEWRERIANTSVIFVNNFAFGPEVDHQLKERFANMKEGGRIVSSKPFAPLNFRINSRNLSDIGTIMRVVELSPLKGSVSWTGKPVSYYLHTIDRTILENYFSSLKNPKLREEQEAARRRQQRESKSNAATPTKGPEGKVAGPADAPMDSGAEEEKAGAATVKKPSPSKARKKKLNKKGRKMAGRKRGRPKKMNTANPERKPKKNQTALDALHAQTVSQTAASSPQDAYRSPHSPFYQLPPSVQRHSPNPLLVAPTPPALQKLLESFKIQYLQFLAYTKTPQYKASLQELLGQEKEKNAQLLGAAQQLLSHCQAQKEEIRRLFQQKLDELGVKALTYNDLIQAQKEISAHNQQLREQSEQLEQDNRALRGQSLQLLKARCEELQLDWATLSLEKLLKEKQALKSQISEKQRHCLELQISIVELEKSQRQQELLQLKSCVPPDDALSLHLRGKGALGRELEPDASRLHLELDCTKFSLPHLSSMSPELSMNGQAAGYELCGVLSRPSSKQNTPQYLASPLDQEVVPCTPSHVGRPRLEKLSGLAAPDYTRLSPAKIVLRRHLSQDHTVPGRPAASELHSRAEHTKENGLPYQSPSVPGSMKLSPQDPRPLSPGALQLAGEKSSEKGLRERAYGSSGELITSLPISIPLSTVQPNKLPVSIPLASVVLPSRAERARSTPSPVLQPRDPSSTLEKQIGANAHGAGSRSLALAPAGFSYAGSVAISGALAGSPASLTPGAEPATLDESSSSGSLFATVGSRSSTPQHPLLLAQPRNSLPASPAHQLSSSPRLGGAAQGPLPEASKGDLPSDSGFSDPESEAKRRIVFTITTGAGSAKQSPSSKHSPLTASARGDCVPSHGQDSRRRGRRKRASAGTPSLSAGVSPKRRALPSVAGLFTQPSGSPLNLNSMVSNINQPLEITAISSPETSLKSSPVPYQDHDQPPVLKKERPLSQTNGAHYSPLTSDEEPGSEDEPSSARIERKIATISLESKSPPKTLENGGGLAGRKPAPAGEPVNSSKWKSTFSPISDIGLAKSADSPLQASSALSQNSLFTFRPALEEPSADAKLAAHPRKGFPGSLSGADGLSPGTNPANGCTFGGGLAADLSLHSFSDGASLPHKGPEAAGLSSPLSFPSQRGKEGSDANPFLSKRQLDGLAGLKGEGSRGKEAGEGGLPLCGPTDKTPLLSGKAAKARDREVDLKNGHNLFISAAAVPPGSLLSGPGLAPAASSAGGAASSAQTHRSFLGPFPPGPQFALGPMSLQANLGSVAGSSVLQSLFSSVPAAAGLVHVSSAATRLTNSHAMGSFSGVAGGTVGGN
Procedure: FIGS. 9A-9B show acute myeloid leukemia cells (Molm13 PA) treated with DOT1L-1 at the indicated concentrations for the indicated amount of time. The cells were immunoblotted with DOT1L (D402T), actin, and H3K79me2.
The cells were immunoblotted with DOT1L (D402T), actin, and H3K79me2.
Molm13PA (acute myeloid leukemia) cells were treated with dDOT1L-1 at 0 μM, 0.3 μM, 1 μM, 3.3 μM, and 10 μM for 24 hours and 48 hours. Cell lysates were loaded on SDS-PAGE, then immunoblotted with DOT1L (D402T), actin, H3K79me2, total H3. Repeat treatment was performed at 24 hours, 48 hours and 72 hours at the same concentrations of dDOT1L-1. […] (see FIGS. 9A-9B).
Molm13PA (acute myeloid leukemia) cells were treated with DOT1L-4 at 0 μM, 0.3 μM, 1 μM, 3.3 μM, and 10 μM for 24 hours, 48 hours, and 72 hours. Cell lysates were loaded on SDS-PAGE, then immunoblotted with DOT1L (D402T), actin, H3K79me2, total H3.

DOT1L [2] = molecular target: T2, DOT1L (Mus musculus, UniProt Q6XZL8); experiment: Degradation in mouse MLL-AF9 PA cell line by immunoblot; type: cell-based; details: FIGS. 10A-10B, mouse MLL-AF9 PA cells, up to 10 μM, 24, 48 and 72 hours
T2 construct: endogenous in cells; host or cells: mouse MLL-AF9 PA leukemia cells
T2 sequence (Q6XZL8 1-1540): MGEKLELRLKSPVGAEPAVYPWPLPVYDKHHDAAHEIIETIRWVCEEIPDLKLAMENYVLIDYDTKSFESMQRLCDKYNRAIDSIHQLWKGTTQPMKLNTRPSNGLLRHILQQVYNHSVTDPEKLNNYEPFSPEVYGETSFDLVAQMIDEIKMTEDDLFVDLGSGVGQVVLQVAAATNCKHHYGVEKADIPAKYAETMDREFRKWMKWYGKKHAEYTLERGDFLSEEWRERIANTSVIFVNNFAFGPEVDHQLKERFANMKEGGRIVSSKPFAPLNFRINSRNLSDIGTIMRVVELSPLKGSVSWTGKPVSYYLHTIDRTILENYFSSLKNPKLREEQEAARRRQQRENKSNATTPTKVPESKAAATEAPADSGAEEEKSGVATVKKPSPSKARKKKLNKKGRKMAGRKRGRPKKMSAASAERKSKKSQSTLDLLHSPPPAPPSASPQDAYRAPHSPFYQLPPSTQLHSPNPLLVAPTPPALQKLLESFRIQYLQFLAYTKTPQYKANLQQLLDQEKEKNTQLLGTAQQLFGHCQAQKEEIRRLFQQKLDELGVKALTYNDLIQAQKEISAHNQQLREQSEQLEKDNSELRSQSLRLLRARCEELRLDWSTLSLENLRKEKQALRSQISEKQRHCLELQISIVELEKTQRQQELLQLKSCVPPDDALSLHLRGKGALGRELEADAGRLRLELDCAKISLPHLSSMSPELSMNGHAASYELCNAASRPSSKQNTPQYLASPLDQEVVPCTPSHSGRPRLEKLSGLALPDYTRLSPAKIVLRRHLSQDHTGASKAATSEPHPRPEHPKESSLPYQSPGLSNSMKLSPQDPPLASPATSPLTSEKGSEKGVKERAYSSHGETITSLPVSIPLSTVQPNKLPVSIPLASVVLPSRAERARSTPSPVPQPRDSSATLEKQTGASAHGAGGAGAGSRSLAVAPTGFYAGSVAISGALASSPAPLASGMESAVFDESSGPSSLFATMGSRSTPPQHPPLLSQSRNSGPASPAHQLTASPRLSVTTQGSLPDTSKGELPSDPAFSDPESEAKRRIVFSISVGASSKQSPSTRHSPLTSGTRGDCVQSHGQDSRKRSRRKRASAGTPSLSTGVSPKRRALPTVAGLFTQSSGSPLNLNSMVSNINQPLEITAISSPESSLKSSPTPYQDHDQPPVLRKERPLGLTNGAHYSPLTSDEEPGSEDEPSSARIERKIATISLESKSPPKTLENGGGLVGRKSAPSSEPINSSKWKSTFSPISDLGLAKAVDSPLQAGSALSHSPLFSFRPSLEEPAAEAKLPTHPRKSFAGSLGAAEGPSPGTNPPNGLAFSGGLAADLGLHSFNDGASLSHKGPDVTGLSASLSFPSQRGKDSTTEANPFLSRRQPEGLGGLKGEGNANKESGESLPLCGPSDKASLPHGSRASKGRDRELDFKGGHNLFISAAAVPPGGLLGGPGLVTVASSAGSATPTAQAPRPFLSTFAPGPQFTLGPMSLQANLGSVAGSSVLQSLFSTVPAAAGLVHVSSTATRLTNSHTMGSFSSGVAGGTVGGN
Procedure: FIGS. 10A-10B show mouse MLL-AF9 PA (Mixed-lineage leukemia (MLL)-AF9 leukemia) cells treated with DOT1L-1 at the indicated concentrations for the indicated amount of time. The cells were immunoblotted with DOT1L (D402T), actin, and H3K79me2.
Mouse MLL-AF9 PA (Mixed-lineage leukemia (MLL)-AF9 leukemia) cells were treated with DOT1L-1 at 0 μM, 0.3 μM, 1 μM, 3.3 μM, and 10 μM for 24 hours, 48 hours, and 72 hours. Cell lysates were loaded on SDS-PAGE, then immunoblotted with DOT1L (D402T), actin, H3K79me2, and total H3. A second treatment was performed with DOT1L-1 concentrations of 0 μM, 0.01 μM, 0.1 μM, 0.3 μM, 1 μM, 3.3 μM, and 10 μM, at 24 hours and 48 hours.

DOT1L [3] = molecular target: T1, DOT1L; experiment: DOT1L degradation in EOL1 cells by immunoblot; type: cell-based; design: endogenous in cells; host or cells: EOL1; details: for DOT1L degradation: immunoblot
Procedure: With JQ-DD6, the degradation happened at 16 hours and maximum degradation occurs at 24 hours.
(§1) EOL1 (acute myeloid (eosinophilic) leukemia cell line) cells were treated with exemplary DOT1L degrader compounds JQ-DD6, JQ-DD7, and JQ-DD8 at 0.5 μM, 1 μM, 3 μM, 5 μM, and 10 μM for 24 hours. Cell lysates were loaded on SDS-PAGE, then immunoblotted with DOT1L, Myc, H3K79me2, and actin. (see FIG. 21).
EOL1 cells were treated with exemplary DOT1L degrader compounds JQ-DD2, JQ-DD4, and JQ-DD6, JQ-DD7, and JQ-DD8 at 1 μM and […] for 2, 4, 8, 16, and 24 hours. Cell lysates were immunoblotted with DOT1L, Myc, H3K79me2, and actin at the indicated concentrations for the indicated times. (see FIG. 23).
(§2) EOL1 cells were treated with exemplary DOT1L degrader compounds JQ-DD6, JQ-DD7, and JQ-DD8 at 1 μM and […] for 24 and 48 hours. Cell lysates were immunoblotted with DOT1L, Myc, H3K79me2, and actin at the indicated concentrations for the indicated times. (see FIG. 24).

CRBN with DOT1L = CRBN with DOT1L (Homo sapiens, UniProt Q8TEK3+Q96SW2); experiment: Biochemical dimerization assay of CRBN with DOT1L induced by the degraders; details: FIG. 20, biochemical assay setting
Sequence of CRBN with DOT1L (Q8TEK3 whole entry): as the sequence (Q8TEK3 whole entry) above
Sequence of CRBN with DOT1L (Q96SW2 whole entry): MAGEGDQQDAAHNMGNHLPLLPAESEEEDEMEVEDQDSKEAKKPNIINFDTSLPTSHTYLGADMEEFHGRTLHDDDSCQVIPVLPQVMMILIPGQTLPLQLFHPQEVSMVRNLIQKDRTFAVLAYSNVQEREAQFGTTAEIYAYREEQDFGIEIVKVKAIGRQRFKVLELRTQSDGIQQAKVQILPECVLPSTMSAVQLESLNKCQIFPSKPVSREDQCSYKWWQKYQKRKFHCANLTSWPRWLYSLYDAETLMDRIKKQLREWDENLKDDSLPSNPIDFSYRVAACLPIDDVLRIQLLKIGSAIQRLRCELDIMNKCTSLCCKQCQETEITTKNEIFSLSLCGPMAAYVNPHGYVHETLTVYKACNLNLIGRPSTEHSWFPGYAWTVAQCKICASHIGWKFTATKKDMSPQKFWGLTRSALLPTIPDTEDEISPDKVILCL
From the text: This new assay checks if the exemplary compounds can dimerize CRBN and DOT1L in a biochemical assay setting.
A biochemical assay was completed to determine the dimerization of CRBN with DOT1L induced by the degraders. This assay checks if the exemplary compounds can dimerize CRBN and DOT1L in a biochemical assay setting.

[4] = molecular target: T3, DOT1L tagged GFP and mcherry (Homo sapiens, UniProt Q8TEK3+Q96SW2); experiment: DOT1L degradation eGFP-mCherry reporting cell line assay; type: cell-based; details: FIG. 26, eGFP-mCherry reporting cell line, 24 hour treatment
T3 construct: eGFP; mCherry; expressed in transfected cells
T3 sequence (Q8TEK3 whole entry): as the sequence (Q8TEK3 whole entry) above
T3 sequence (Q96SW2 whole entry): as the sequence (Q96SW2 whole entry) above
T3 sequence (Q16531 whole entry partner): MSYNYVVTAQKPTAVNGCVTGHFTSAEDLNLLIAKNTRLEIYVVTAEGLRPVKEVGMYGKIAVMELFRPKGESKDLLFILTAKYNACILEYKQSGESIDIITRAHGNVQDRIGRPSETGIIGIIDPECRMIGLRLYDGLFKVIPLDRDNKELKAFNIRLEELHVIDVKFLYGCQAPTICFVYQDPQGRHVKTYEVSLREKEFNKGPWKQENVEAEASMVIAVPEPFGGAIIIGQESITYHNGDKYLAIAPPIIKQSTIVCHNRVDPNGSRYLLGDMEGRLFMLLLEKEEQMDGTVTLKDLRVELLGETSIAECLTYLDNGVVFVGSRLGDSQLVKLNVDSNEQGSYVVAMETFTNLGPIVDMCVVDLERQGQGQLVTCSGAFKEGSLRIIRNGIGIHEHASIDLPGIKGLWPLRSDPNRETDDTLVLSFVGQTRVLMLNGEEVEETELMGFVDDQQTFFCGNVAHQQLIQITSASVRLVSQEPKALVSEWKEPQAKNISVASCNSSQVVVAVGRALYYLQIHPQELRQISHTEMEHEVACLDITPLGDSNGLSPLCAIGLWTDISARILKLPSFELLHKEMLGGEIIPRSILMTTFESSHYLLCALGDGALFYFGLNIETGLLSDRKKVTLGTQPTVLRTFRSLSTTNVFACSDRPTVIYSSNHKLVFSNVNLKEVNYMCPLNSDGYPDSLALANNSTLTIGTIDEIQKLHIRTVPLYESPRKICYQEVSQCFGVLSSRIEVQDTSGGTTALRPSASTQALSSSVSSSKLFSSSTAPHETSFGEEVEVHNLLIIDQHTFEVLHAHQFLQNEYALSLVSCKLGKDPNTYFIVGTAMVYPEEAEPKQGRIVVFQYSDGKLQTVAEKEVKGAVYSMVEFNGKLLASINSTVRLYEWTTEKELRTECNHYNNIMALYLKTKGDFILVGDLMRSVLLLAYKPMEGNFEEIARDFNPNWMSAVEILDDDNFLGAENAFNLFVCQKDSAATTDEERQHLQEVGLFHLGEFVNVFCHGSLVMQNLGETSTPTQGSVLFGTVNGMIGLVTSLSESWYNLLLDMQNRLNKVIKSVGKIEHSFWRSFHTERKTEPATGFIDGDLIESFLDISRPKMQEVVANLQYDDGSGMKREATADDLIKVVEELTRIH
Procedure: This can directly report the targeted protein degradation. (See Sievers et al., Science, 2018).
The tested compounds include exemplary DOT1L degrader compounds JQ-DD2, JQ-DD3, JQ-DD4, JQ-DD5, JQ-DD6, JQ-DD7, JQ-DD8, negative control EPZ5676, and positive controls thalidomide and lenalidomide. The eGFP-mCherry reporting cell line can report the degradation well in 24 hours.
A new DOT1L degradation reporting cell line was developed with DOT1L tagged GFP and mcherry. This reporting cell line can directly report the targeted protein degradation. (See Sievers et al., Science, 2018). DOT1L degradation using eGFP-mCherry reporting cell line assays were conducted for exemplary DOT1L degrader compounds, and control compounds at different concentrations [M], measured in [M] per mP. The tested compounds include exemplary DOT1L degrader compounds JQ-DD2, JQ-DD3, JQ-DD4, JQ-DD5, JQ-DD6, JQ-DD7, JQ-DD8, and controls EPZ5676, Thalidomide, and Lenalidomide.

EOL1 cells = experiment: Toxicity seen in EOL1 cells treated for immunoblot; type: cell-based; details: at 24 hours
Procedure: as §1, §2

[5] = FIG. 21, EOL1 cells, 0.5 μM, 1 μM, 3 μM, 5 μM, and 10 μM for 24 hours
[6] = FIG. 23, EOL1 cells, time course 2, 4, 8, 16, and 24 hours, 1 μM and 10M
[7] = FIG. 24, EOL1 cells, 1 μM and 10M for 24 and 48 hours

Structure (SMILES): CC(C)N(C[C@H]1O[C@@H](n2cnc3c(NCCCCNC(=O)C=COCCOCCOCCNc4cccc5c4C(=O)N(C4CCC(=O)NC4=O)C5=O)ncnc32)[C@H](O)[C@@H]1O)C1CC(CCc2nc3cc(C(C)(C)C)ccc3[nH]2)C1 (stereo partly drawn) [DOT1L-1, N-(4-((9-((2R,3R,4S,5R)-5-(((3-(2-(5-(tert-butyl)-1H-benzo[d]imidazol-2-yl)ethyl)cyclobutyl)(isopropyl)amino)methyl)-3,4-dihydroxytetrahydrofuran-2-yl)-9H-purin-6-yl)amino)butyl)-3-(2-(2-(2-((2-(2,6-dioxopiperidin-3-yl)-1,3-dioxoisoindolin-4-yl)amino)ethoxy)ethoxy)ethoxy)propenamide]
effect on Molm13 PA cells in blots (DOT1L, H3K79me2) (DOT1L [1]): inhibits acute myeloid leukemia cells (Molm13 PA)
degradation in blots (DOT1L, H3K79me2) (DOT1L [2]): degrades Mouse MLL-AF9 PA (Mixed-lineage leukemia (MLL)-AF9 leukemia) cells

DOT1L degradation (DOT1L [3]; [5]): solid degradation
time at which DOT1L degradation happened (DOT1L [3]; [6]): 16 h
time of maximum DOT1L degradation (DOT1L [3]; [6]): 24 h
DOT1L degradation (DOT1L [3]; [7]): shows degradation
activity in the cell (DOT1L [3]; general remark in legend of FIG. 20, cell not named there): works very well in the cell
dimerization of CRBN with DOT1L (signal) (CRBN with DOT1L): strongest signal
Structure (SMILES): CC(C)N(C[C@H]1O[C@@H](n2cnc3c(NCCCCNC(=O)CCCCCCCCCCCNc4cccc5c4C(=O)N(C4CCC(=O)NC4=O)C5=O)ncnc32)C(O)C1O)C1CC(CCc2nc3cc(C(C)(C)C)ccc3[nH]2)C1 (stereo partly drawn) [JQ-DD6]
degradation of DOT1L (reporter signal) [4]: strongest signal for degradation of DOT1L

DOT1L degradation (DOT1L [3]; [5]): show degradation
DOT1L degradation (DOT1L [3]; [7]): shows degradation
Structure (SMILES): CC(C)N(C[C@H]1O[C@@H](n2cnc3c(NCCCCNC(=O)CCCCCCCCCNc4cccc5c4C(=O)N(C4CCC(=O)NC4=O)C5=O)ncnc32)C(O)C1O)C1CC(CCc2nc3cc(C(C)(C)C)ccc3[nH]2)C1 (stereo partly drawn) [JQ-DD7]

DOT1L degradation (DOT1L [3]; [5]): show degradation
DOT1L degradation (DOT1L [3]; [7]): shows degradation
Structure (SMILES): CC(C)N(CCCNC(=O)Nc1ccc(C(C)(C)C)cc1)C[C@H]1O[C@@H](n2cnc3c(NCCCCNC(=O)CCCCCCCCCCCNc4cccc5c4C(=O)N(C4CCC(=O)NC4=O)C5=O)ncnc32)C(O)C1O (stereo partly drawn) [JQ-DD8]
toxicity in EOL1 (EOL1 cells; FIG. 21, EOL1 cells): potential toxicity
toxicity in EOL1 (EOL1 cells; FIG. 24, EOL1 cells): potential toxicity
